{"source": "patent US12575567B2", "about": "“Fungicidal compositions” (priority 2020, dated 2026)", "key": {"Botrytis cinerea": {"tested_on": "Botrytis cinerea", "assay": "Liquid culture test in well plates, Botrytis cinerea (Gray Mould), Example 1-1", "format": "cell-based", "conditions": "72 hours; for (A) inhibition: Aureobasidin A alone", "procedure": "Mycelia fragments or conidia suspensions of a fungus, prepared either freshly from liquid cultures of the fungus or from cryogenic storage, are directly mixed into nutrient broth. DMSO solutions of the test compound (max. 10 mg/mL) is diluted with 0.025% Tween20 by factor 50 and 10 μL of this solution is pipetted into a microtiter plate (96-well format). […] The test plates are incubated in the dark at 24° C. and 96% relative humidity (rh). The inhibition of fungal growth is determined photometrically and visually after 3-7 days, depending on the pathosystem, and percent antifungal activity relative to the untreated check is calculated.\nConidia of the fungus from cryogenic storage were directly mixed into nutrient broth (PDB potato dextrose broth). After placing a DMSO solution of the test compositions into a microtiter plate (96-well format), the nutrient broth containing the fungal spores was added."}, "Alternaria solani": {"tested_on": "Alternaria solani", "assay": "Liquid culture test in well plates, Alternaria solani (Early Blight of Tomato/Potato), Example 1-2", "format": "cell-based", "conditions": "48 hours; for (A) inhibition: Aureobasidin A alone", "procedure": "Mycelia fragments or conidia suspensions of a fungus, prepared either freshly from liquid cultures of the fungus or from cryogenic storage, are directly mixed into nutrient broth. DMSO solutions of the test compound (max. 10 mg/mL) is diluted with 0.025% Tween20 by factor 50 and 10 μL of this solution is pipetted into a microtiter plate (96-well format). […] The test plates are incubated in the dark at 24° C. and 96% relative humidity (rh). […]\nConidia of the fungus from cryogenic storage were directly mixed into nutrient broth (PDB potato dextrose broth). After placing a DMSO solution of the test compositions into a microtiter plate (96-well format) the nutrient broth containing the fungal spores was added."}, "[1]": {"conditions": "component (B) alone, 0.0031 ppm"}, "[2]": {"conditions": "component (B) alone, 0.0250 ppm"}, "[3]": {"conditions": "component (B) alone, 0.1250 ppm"}, "[4]": {"conditions": "Alternaria solani, component (B) alone"}, "[5]": {"conditions": "component (B) alone, 0.0016 ppm"}, "[6]": {"conditions": "component (B) alone, 0.0125 ppm"}}, "note": "Where “and” joins values, the source holds several entries; their conditions need not be identical. Equal entries are not always repeated. Numbered stars: 1 amine (or outer) side, 2 acyl side, 3 side chain; on linkers, the order of the positions; unused ones are H or OH. Square brackets hold non-standard residues; d marks the D form. Peptide text beside a SMILES is read from it. X1 = CC[C@@H](C)[C@@H](O[*:1])C(=O)[*:2]; NMeVal(β-OH) = CN[C@H](C(=O)O)C(C)(C)O; NMeF = CN[C@@H](Cc1ccccc1)C(=O)O; aIle = CC[C@@H](C)[C@H](N)C(=O)O; NMeV = CN[C@H](C(=O)O)C(C)C"}
{"smiles": "Cn1cc(C(=O)Nc2cccc3c2[C@@H]2CC[C@H]3C2=C(Cl)Cl)c(C(F)F)n1", "note": "(racemic) [Benzovindiflupyr, benzovindiflupyr]", "values": [{"measurement": "(B) inhibition", "setting": "Botrytis cinerea; [1]", "result": 26, "unit": "%"}, {"measurement": "(B) inhibition", "setting": "Botrytis cinerea; [2]", "result": 57, "unit": "%"}]}
{"smiles": "CC[C@@H](C)[C@@H]1NC(=O)[C@@H]2CCCN2C(=O)[C@H](Cc2ccccc2)N(C)C(=O)[C@H](Cc2ccccc2)NC(=O)[C@H](C(C)C)N(C)C(=O)[C@@H]([C@H](C)CC)OC(=O)[C@H](C(C)(C)O)N(C)C(=O)[C@H](CC(C)C)NC(=O)[C@H](C(C)C)N(C)C1=O", "note": "[Aureobasidin A] (cyclo(F[NMeF]P[aIle][NMeV]L[NMeVal(β-OH)][X1][NMeV]))", "values": [{"measurement": "(A) inhibition", "setting": "Alternaria solani; 0.0001 ppm", "result": "8% and 2% and 0%"}, {"measurement": "(A) inhibition", "setting": "Alternaria solani; 0.0002 ppm", "result": "2% and 0%"}, {"measurement": "(A) inhibition", "setting": "Alternaria solani; 0.0003 ppm", "result": "0% and 3%"}, {"measurement": "(A) inhibition", "setting": "Alternaria solani; 0.0006 ppm", "result": "9% and 6% and 0%"}, {"measurement": "(A) inhibition", "setting": "Alternaria solani; 0.0012 ppm", "result": 0, "unit": "%"}, {"measurement": "(A) inhibition", "setting": "Alternaria solani; 0.0025 ppm", "result": "2% and 1% and 0%"}, {"measurement": "(A) inhibition", "setting": "Alternaria solani; 0.005 ppm", "result": 12, "unit": "%"}, {"measurement": "(A) inhibition", "setting": "Alternaria solani; 0.0100 ppm", "result": 0, "unit": "%"}, {"measurement": "(A) inhibition", "setting": "Alternaria solani; 0.040 ppm", "result": 46, "unit": "%"}, {"measurement": "(A) inhibition", "setting": "Botrytis cinerea; 0.0002 ppm", "result": 0, "unit": "%"}, {"measurement": "(A) inhibition", "setting": "Botrytis cinerea; 0.0003 ppm", "result": "0% and 3%"}, {"measurement": "(A) inhibition", "setting": "Botrytis cinerea; 0.0006 ppm", "result": 0, "unit": "%"}, {"measurement": "(A) inhibition", "setting": "Botrytis cinerea; 0.0012 ppm", "result": "0% and 7% and 8%"}, {"measurement": "(A) inhibition", "setting": "Botrytis cinerea; 0.0100 ppm", "result": "23% and 25% and 24%"}, {"measurement": "(A) inhibition", "setting": "Botrytis cinerea; 0.0200 ppm", "result": "38% and 50% and 33%"}, {"measurement": "(A) inhibition", "setting": "Botrytis cinerea; 0.040 ppm", "result": 85, "unit": "%"}]}
{"smiles": "CO/C=C(/C(=O)OC)c1ccccc1Oc1cc(Oc2ccccc2C#N)ncn1", "note": "[Azoxystrobin, azoxystrobin]", "values": [{"measurement": "(B) inhibition", "setting": "Botrytis cinerea; component (B) alone, 0.0313 ppm", "result": 31, "unit": "%"}, {"measurement": "(B) inhibition", "setting": "Botrytis cinerea; [3]", "result": 61, "unit": "%"}]}
{"smiles": "COc1ccnc(C(=O)N[C@@H](C)C(=O)O[C@@H](C)C(c2ccc(F)cc2)c2ccc(F)cc2)c1OC(C)=O", "note": "[Florylpicoxamid, florylpicoxamid]", "values": [{"measurement": "(B) inhibition", "setting": "Botrytis cinerea; component (B) alone, 0.0625 ppm", "result": 56, "unit": "%"}, {"measurement": "(B) inhibition", "setting": "Botrytis cinerea; [3]", "result": 59, "unit": "%"}]}
{"smiles": "O=[N+]([O-])c1cc(C(F)(F)F)c(Cl)c([N+](=O)[O-])c1Nc1ncc(C(F)(F)F)cc1Cl", "note": "[Fluazinam, fluazinam]", "values": [{"measurement": "inhibition at 0.0003 ppm", "setting": "Alternaria solani; Alternaria solani, component (B) alone, 0.0003 ppm", "result": 11, "unit": "%"}, {"measurement": "inhibition at 0.0025 ppm", "setting": "Alternaria solani; Alternaria solani, component (B) alone, 0.0025 ppm", "result": 11, "unit": "%"}, {"measurement": "inhibition at 0.005 ppm", "setting": "Alternaria solani; Alternaria solani, component (B) alone, 0.0050 ppm", "result": 11, "unit": "%"}, {"measurement": "inhibition at 0.0006 ppm", "setting": "Botrytis cinerea; Botrytis cinerea, component (B) alone, 0.0006 ppm", "result": 3, "unit": "%"}, {"measurement": "inhibition at 0.0012 ppm", "setting": "Botrytis cinerea; Botrytis cinerea, component (B) alone, 0.0012 ppm", "result": 6, "unit": "%"}, {"measurement": "inhibition at 0.0025 ppm", "setting": "Botrytis cinerea; Botrytis cinerea, component (B) alone, 0.0025 ppm", "result": 8, "unit": "%"}, {"measurement": "inhibition at 0.005 ppm", "setting": "Botrytis cinerea; Botrytis cinerea, component (B) alone, 0.0050 ppm", "result": 6, "unit": "%"}, {"measurement": "inhibition at 0.01 ppm", "setting": "Botrytis cinerea; Botrytis cinerea, component (B) alone, 0.0100 ppm", "result": 8, "unit": "%"}]}
{"smiles": "O=C(NCCc1ncc(C(F)(F)F)cc1Cl)c1ccccc1C(F)(F)F", "note": "[Fluopyram, fluopyram, reference compound]", "values": [{"measurement": "inhibition at 0.0313 ppm", "setting": "Alternaria solani; [4]", "result": 49, "unit": "%"}, {"measurement": "inhibition at 0.0625 ppm", "setting": "Alternaria solani; Alternaria solani, component (B) alone, 0.0625 ppm", "result": 63, "unit": "%"}, {"measurement": "inhibition at 0.125 ppm", "setting": "Botrytis cinerea; Botrytis cinerea, component (B) alone, 0.1250 ppm", "result": 42, "unit": "%"}]}
{"smiles": "CC(C)c1ccc(Cl)cc1CN(C(=O)c1c(C(F)F)nn(C)c1F)C1CC1", "note": "[Isoflucypram, isoflucypram, reference compound]", "values": [{"measurement": "(B) inhibition", "setting": "Alternaria solani; [5]", "result": 22, "unit": "%"}, {"measurement": "(B) inhibition", "setting": "Botrytis cinerea; [1]", "result": 37, "unit": "%"}]}
{"smiles": "Cc1cccc(-n2nnn(C)c2=O)c1COc1ccn(-c2ccc(Cl)cc2)n1", "note": "[Metyltetrapole, metyltetrapole]", "values": [{"measurement": "(B) inhibition", "setting": "Alternaria solani; [6]", "result": 73, "unit": "%"}, {"measurement": "(B) inhibition", "setting": "Botrytis cinerea; [6]", "result": 43, "unit": "%"}, {"measurement": "(B) inhibition", "setting": "Botrytis cinerea; [2]", "result": 56, "unit": "%"}]}
{"smiles": "CON(C(=O)c1cn(C)nc1C(F)F)C(C)Cc1c(Cl)cc(Cl)cc1Cl", "note": "(stereo not shown) [Pydiflumetofen, pydiflumetofen, reference compound]", "values": [{"measurement": "(B) inhibition", "setting": "Alternaria solani; component (B) alone, 0.0008 ppm", "result": 28, "unit": "%"}, {"measurement": "(B) inhibition", "setting": "Alternaria solani; [1]", "result": 71, "unit": "%"}, {"measurement": "(B) inhibition", "setting": "Botrytis cinerea; [5]", "result": 27, "unit": "%"}]}
{"smiles": "CON=C(C(=O)OC)c1ccccc1CON=C(C)c1cccc(C(F)(F)F)c1", "note": "[Trifloxystrobin, trifloxystrobin, reference compound]", "values": [{"measurement": "inhibition at […]", "setting": "Alternaria solani; Alternaria solani, component (B) alone, 0.0078 ppm", "result": 44, "unit": "%"}, {"measurement": "inhibition at 0.0313 ppm", "setting": "Alternaria solani; [4]", "result": 71, "unit": "%"}]}
